Data: PubChem BioAssay (NCI)
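Assay format: 96-well plates, 48-hour exposure. The concentration for full growth arrest is given as TGI.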

Tests used:
Test in all cases: growth of human tumour cells (NCI), 48 h
786-0 renal = tested on: 786-0 renal
A498 renal = tested on: A498 renal
A549 NSCLC = tested on: A549 NSCLC
ACHN renal = tested on: ACHN renal
BT-549 breast = tested on: BT-549 breast
CAKI-1 renal = tested on: CAKI-1 renal
CCRF-CEM leukemia = tested on: CCRF-CEM leukemia
COLO 205 colon = tested on: COLO 205 colon
DU-145 prostate = tested on: DU-145 prostate
EKVX NSCLC = tested on: EKVX NSCLC
HCC-2998 colon = tested on: HCC-2998 colon
HCT-116 colon = tested on: HCT-116 colon
HCT-15 colon = tested on: HCT-15 colon
HOP-62 NSCLC = tested on: HOP-62 NSCLC
HOP-92 NSCLC = tested on: HOP-92 NSCLC
HS 578T breast = tested on: HS 578T breast
HT29 colon = tested on: HT29 colon
IGROV1 ovarian = tested on: IGROV1 ovarian
K-562 leukemia = tested on: K-562 leukemia
KM12 colon = tested on: KM12 colon
LOX IMVI melanoma = tested on: LOX IMVI melanoma
M14 melanoma = tested on: M14 melanoma
MALME-3M melanoma = tested on: MALME-3M melanoma
MCF7 breast = tested on: MCF7 breast
MDA-MB-231 breast = tested on: MDA-MB-231 breast
MDA-MB-435 = tested on: MDA-MB-435
MDA-N = tested on: MDA-N
MOLT-4 leukemia = tested on: MOLT-4 leukemia
NCI-H226 lung = tested on: NCI-H226 lung
NCI-H23 lung = tested on: NCI-H23 lung
NCI-H460 lung = tested on: NCI-H460 lung
NCI-H522 lung = tested on: NCI-H522 lung
NCI/ADR-RES ovarian = tested on: NCI/ADR-RES ovarian
OVCAR-3 ovarian = tested on: OVCAR-3 ovarian
OVCAR-4 ovarian = tested on: OVCAR-4 ovarian
OVCAR-5 ovarian = tested on: OVCAR-5 ovarian
OVCAR-8 ovarian = tested on: OVCAR-8 ovarian
PC-3 prostate = tested on: PC-3 prostate
RPMI-8226 leukemia = tested on: RPMI-8226 leukemia
RXF 393 renal = tested on: RXF 393 renal
SF-268 CNS = tested on: SF-268 CNS
SF-295 CNS = tested on: SF-295 CNS
SF-539 CNS = tested on: SF-539 CNS
SK-MEL-2 melanoma = tested on: SK-MEL-2 melanoma
SK-MEL-28 melanoma = tested on: SK-MEL-28 melanoma
SK-MEL-5 melanoma = tested on: SK-MEL-5 melanoma
SK-OV-3 ovarian = tested on: SK-OV-3 ovarian
SN12C renal = tested on: SN12C renal
SNB-19 CNS = tested on: SNB-19 CNS
SNB-75 CNS = tested on: SNB-75 CNS
SW-620 colon = tested on: SW-620 colon
T-47D breast = tested on: T-47D breast
TK-10 renal = tested on: TK-10 renal
U251 CNS = tested on: U251 CNS
UACC-257 melanoma = tested on: UACC-257 melanoma
UACC-62 melanoma = tested on: UACC-62 melanoma
UO-31 renal = tested on: UO-31 renal
HL-60(TB) leukemia = tested on: HL-60(TB) leukemia
SR leukemia = tested on: SR leukemia

CCN(CC(=O)O)CC(=O)O
TGI (786-0 renal): > 100 µM
TGI (A498 renal): > 100 µM
TGI (A549 NSCLC): > 100 µM
TGI (ACHN renal): > 100 µM
TGI (BT-549 breast): > 100 µM
TGI (CAKI-1 renal): > 100 µM
TGI (CCRF-CEM leukemia): > 100 µM
TGI (COLO 205 colon): > 100 µM
TGI (DU-145 prostate): > 100 µM
TGI (EKVX NSCLC): > 100 µM
TGI (HCC-2998 colon): > 100 µM
TGI (HCT-116 colon): > 100 µM
TGI (HCT-15 colon): > 100 µM
TGI (HOP-62 NSCLC): > 100 µM
TGI (HOP-92 NSCLC): > 100 µM
TGI (HS 578T breast): > 100 µM
TGI (HT29 colon): > 100 µM
TGI (IGROV1 ovarian): > 100 µM
TGI (K-562 leukemia): > 100 µM
TGI (KM12 colon): > 100 µM
TGI (LOX IMVI melanoma): > 100 µM
TGI (M14 melanoma): > 100 µM
TGI (MALME-3M melanoma): > 100 µM
TGI (MCF7 breast): > 100 µM
TGI (MDA-MB-231 breast): > 100 µM
TGI (MDA-MB-435): > 100 µM
TGI (MDA-N): > 100 µM
TGI (MOLT-4 leukemia): > 100 µM
TGI (NCI-H226 lung): > 100 µM
TGI (NCI-H23 lung): > 100 µM
TGI (NCI-H460 lung): > 100 µM
TGI (NCI-H522 lung): > 100 µM
TGI (NCI/ADR-RES ovarian): > 100 µM
TGI (OVCAR-3 ovarian): > 100 µM
TGI (OVCAR-4 ovarian): > 100 µM
TGI (OVCAR-5 ovarian): > 100 µM
TGI (OVCAR-8 ovarian): > 100 µM
TGI (PC-3 prostate): > 100 µM
TGI (RPMI-8226 leukemia): > 100 µM
TGI (RXF 393 renal): > 100 µM
TGI (SF-268 CNS): > 100 µM
TGI (SF-295 CNS): > 100 µM
TGI (SF-539 CNS): > 100 µM
TGI (SK-MEL-2 melanoma): > 100 µM
TGI (SK-MEL-28 melanoma): > 100 µM
TGI (SK-MEL-5 melanoma): > 100 µM
TGI (SK-OV-3 ovarian): > 100 µM
TGI (SN12C renal): > 100 µM
TGI (SNB-19 CNS): > 100 µM
TGI (SNB-75 CNS): > 100 µM
TGI (SW-620 colon): > 100 µM
TGI (T-47D breast): > 100 µM
TGI (TK-10 renal): > 100 µM
TGI (U251 CNS): > 100 µM
TGI (UACC-257 melanoma): > 100 µM
TGI (UACC-62 melanoma): > 100 µM
TGI (UO-31 renal): > 100 µM

CCOC(=O)c1ccc(C(=O)/C(C(=O)OC(C)(C)C)=C2\CCCN2C)n1C
TGI (786-0 renal): > 100 µM
TGI (A498 renal): > 100 µM
TGI (A549 NSCLC): > 100 µM
TGI (ACHN renal): > 100 µM
TGI (BT-549 breast): > 100 µM
TGI (CAKI-1 renal): > 100 µM
TGI (CCRF-CEM leukemia): > 100 µM
TGI (COLO 205 colon): > 100 µM
TGI (DU-145 prostate): > 100 µM
TGI (EKVX NSCLC): > 100 µM
TGI (HCC-2998 colon): > 100 µM
TGI (HCT-116 colon): > 100 µM
TGI (HCT-15 colon): > 100 µM
TGI (HL-60(TB) leukemia): 70.5 µM
TGI (HOP-62 NSCLC): > 100 µM
TGI (HS 578T breast): > 100 µM
TGI (HT29 colon): > 100 µM
TGI (IGROV1 ovarian): > 100 µM
TGI (K-562 leukemia): > 100 µM
TGI (KM12 colon): > 100 µM
TGI (LOX IMVI melanoma): > 100 µM
TGI (M14 melanoma): > 100 µM
TGI (MALME-3M melanoma): > 100 µM
TGI (MCF7 breast): > 100 µM
TGI (MDA-MB-231 breast): > 100 µM
TGI (MDA-MB-435): > 100 µM
TGI (MDA-N): > 100 µM
TGI (MOLT-4 leukemia): > 100 µM
TGI (NCI-H226 lung): > 100 µM
TGI (NCI-H23 lung): > 100 µM
TGI (NCI-H460 lung): > 100 µM
TGI (NCI/ADR-RES ovarian): > 100 µM
TGI (OVCAR-3 ovarian): > 100 µM
TGI (OVCAR-4 ovarian): > 100 µM
TGI (OVCAR-5 ovarian): > 100 µM
TGI (OVCAR-8 ovarian): > 100 µM
TGI (PC-3 prostate): > 100 µM
TGI (RPMI-8226 leukemia): > 100 µM
TGI (RXF 393 renal): > 100 µM
TGI (SF-268 CNS): > 100 µM
TGI (SF-295 CNS): > 100 µM
TGI (SF-539 CNS): > 100 µM
TGI (SK-MEL-2 melanoma): > 100 µM
TGI (SK-MEL-28 melanoma): > 100 µM
TGI (SK-MEL-5 melanoma): 52.9 µM
TGI (SK-OV-3 ovarian): 95.1 µM
TGI (SN12C renal): > 100 µM
TGI (SNB-19 CNS): > 100 µM
TGI (SNB-75 CNS): 77.8 µM
TGI (SR leukemia): > 100 µM
TGI (SW-620 colon): > 100 µM
TGI (T-47D breast): > 100 µM
TGI (TK-10 renal): > 100 µM
TGI (U251 CNS): > 100 µM
TGI (UACC-257 melanoma): > 100 µM
TGI (UACC-62 melanoma): > 100 µM
TGI (UO-31 renal): > 100 µM
